Experimental data published in patent EP0816329A1, “Benzoic acid derivatives, process for their preparation and their use for the treatment of diseases” (HOECHST AKTIENGESELLSCHAFT, priority 1996, dated 1998).

Each molecule was assayed on Glucose-6-Phosphatase-System (assay: Glucose-6-phosphatase enzyme test in liver microsomes (phosphate released from glucose-6-phosphate)). Conditions: Inhibitorkonzentration 100 µM; Glucose-6-Phosphat 1 mMol/l, 0,1 mg Mikrosomen-Fraktion, pH 7,0, 20 min, room temperature.
Type: biochemical, Wistar-Ratten
Protocol: Die Wirkung der erfindungsgemäßen Verbindungen auf das Glucose-6-Phosphatase-System wurde in einem Enzymtest in Lebermikrosomen untersucht.
Für die Präparation der die Glucose-6-Phosphatase enthaltenden Mikrosomen-Fraktion wurden frische Leber-Organe von männlichen Wistar-Ratten verwendet und wie in der Literatur beschrieben aufgearbeitet [Canfield, W. K. Und Arion, W.J., J. Biol. Chem. 263, 7458-7460, (1988)]. Diese Mikrosomen-Fraktion kann bei -70°C mindestens 2 Monate lang ohne signifikamten Aktivitätsverlust aufbewahrt werden.
Der Nachweis der Glucose-6-Phosphatase-Aktivität wurde wie in der Literatur angegeben (Arion, W. J. in Methods Enzymol. 174, Academic Press 1989, Seite 58 - 67) durch Bestimmung des aus Glucose-6-Phosphat freigesetzten Phosphats durchgeführt. 0,1 ml Testansatz enthielten Glucose-6-Phosphat (1mMol/l), die Testsubstanz, 0,1 mg Mikrosomen-Fraktion und 100 mMol/l HEPES-Puffer (4-(2-Hydroxyethyl)piperazin-1-ethansulfonsäure), pH 7,0. Die Reaktion wurde durch Zugabe des Enzyms gestartet. Nach Ablauf von 20 Minuten bei Raumtemperatur wurde die Reaktion durch Zugabe von 0,2 ml Phosphat-Reagens gestoppt. Die Probe wurde 30 Minuten lang bei 37 °C inkubiert, und die Absorbtion (A) der blauen Farbe anschließend bei 570 nm gemessen. Die inhibitorische Wirksamkeit der Testsubstanz ergab sich durch Vergleich mit einer Kontroll-Reaktion, die keine Testsubstanz enthielt nach der Formel Prozent Hemmung =(A(Kontrolle) - A(Testsubstanz))/(A(Kontrolle))x 100 [formula]
Die hemmende Wirkung der Testsubstanz (Verbindungen 1 - 43) wurde bei den in der nachfolgenden Tabelle 1 angegebenen Konzentrationen der Testsubstanz ermittelt.

| % Hemmung [%] | SMILES |
| --- | --- |
| 63 | COc1ccc(OC)c(CC(=O)Nc2ccc(-c3ccc4cc(OC)ccc4c3)c(C(=O)O)c2)c1 [Beispiel 7] |
| 71 | O=C(Nc1ccc(-c2ccc(Cl)s2)c(C(=O)O)c1)c1ccc2ccccc2c1 [Beispiel 12] |
| 63 | O=C(Nc1ccc(-c2ccco2)c(C(=O)O)c1)c1cnc2ccccc2n1 [Beispiel 15] |
| 66 | O=C(Nc1ccc(CCCCCl)c(C(=O)O)c1)Nc1ccc(Cl)c(C(F)(F)F)c1 [Beispiel 4] |
| 50 | CC(C)(C)c1ccc(-c2ccc(NC(=O)COc3ccccc3)cc2C(=O)O)cc1 [Beispiel 16] |
| 61 | COc1ccc2cc(-c3ccc(NC(=O)c4ccco4)cc3C(=O)O)ccc2c1 [Beispiel 6] |
| 57 | O=C(Nc1ccc(-c2ccco2)c(C(=O)O)c1)c1ccc2ccccc2c1 [Beispiel 14] |
| 64 | COc1ccc2cc(-c3ccc(NC(=O)CCC4CCCC4)cc3C(=O)O)ccc2c1 [Beispiel 9] |
| 60 | COc1ccc2cc(-c3ccc(NC(=O)Cc4ccc(OC)c(OC)c4)cc3C(=O)O)ccc2c1 [Beispiel 2] |
| 53 | O=C(Nc1ccc(-c2cccs2)c(C(=O)O)c1)c1ccc2ccccc2c1 [Beispiel 13] |
| 51 | COc1ccc2cc(-c3ccc(NC(=O)C4CC4)cc3C(=O)O)ccc2c1 [Beispiel 5] |
| 62 | O=C(CCCc1ccc(Cl)cc1)Nc1ccc(-c2ccc(Cl)s2)c(C(=O)O)c1 [Beispiel 10] |
| 77 | COc1ccc2cc(-c3ccc(NC(=O)c4cccc(F)c4)cc3C(=O)O)ccc2c1 [Beispiel 8] |
| 93 | COc1ccc2cc(-c3ccc(NC(=O)c4cccs4)cc3C(=O)O)ccc2c1 [Beispiel 3] |
| 53 | COc1ccc2cc(-c3ccc(NC(=O)C=Cc4ccccc4)cc3C(=O)O)ccc2c1 [Beispiel 1] |
| 57 | O=C(C=Cc1ccccc1)Nc1ccc(-c2ccc(Cl)s2)c(C(=O)O)c1 [Beispiel 11] |
| 53 | CC(C)(C)c1ccc(-c2ccc(NC(=O)C3CCCC3)cc2C(=O)O)cc1 [Beispiel 17] |

Same assay, conditions: Inhibitorkonzentration 12,5 µM; Glucose-6-Phosphat 1 mMol/l, 0,1 mg Mikrosomen-Fraktion, pH 7,0, 20 min, room temperature; 12.5 µM

| SMILES | % Hemmung [%] |
| --- | --- |
| O=C(Nc1ccc(C#Cc2ccccc2)c(C(=O)O)c1)c1ccccc1Cl [Beispiel 20] | 100 |
| Cc1ccc(C#Cc2ccc(NC(=O)C(F)(F)C(F)(F)C(F)(F)F)cc2C(=O)O)cc1 [Beispiel 41] | 71 |
| O=C(Nc1ccc(C#Cc2ccccc2)c(C(=O)O)c1)c1cccc(F)c1 [Beispiel 22] | 100 |
| O=C(Nc1ccc(C#Cc2ccccc2)c(C(=O)O)c1)c1ccc(Cl)cc1Cl [Beispiel 21] | 84 |
| O=C(Nc1ccc(C#Cc2ccccc2)c(C(=O)O)c1)c1cccc(C(F)(F)F)c1 [Beispiel 23] | 63 |
| N#Cc1cccc(C(=O)Nc2ccc(C#Cc3ccccc3)c(C(=O)O)c2)c1 [Beispiel 19] | 98 |
| COc1cccc(C(=O)Nc2ccc(C#Cc3ccccc3)c(C(=O)O)c2)c1 [Beispiel 18] | 98 |

Other lines, results leading:

| % Hemmung [%] | SMILES |
| --- | --- |
| 73 | Cc1ccc(C#Cc2ccc(NC(=O)c3cnc4ccccc4n3)cc2C(=O)O)cc1 [Beispiel 29] |
| 54 | O=C(O)c1cc(NC(=O)c2c(F)c(F)c(F)c(F)c2F)ccc1C#Cc1ccccc1 [Beispiel 26] |
| 60 | CC(C)(O)C(=O)Nc1ccc(C#Cc2ccccc2)c(C(=O)O)c1 [Beispiel 28] |
| 61 | COc1ccc(C(=O)Nc2ccc(C#Cc3ccc(C)cc3)c(C(=O)O)c2)cc1OC [Beispiel 32] |
| 50 | Cc1ccc(C#Cc2ccc(NC(=O)c3cccc([N+](=O)[O-])c3)cc2C(=O)O)cc1 [Beispiel 38] |
| 51 | O=C(Nc1ccc(C#Cc2ccccc2)c(C(=O)O)c1)c1cccc([N+](=O)[O-])c1 [Beispiel 25] |
| 52 | COc1ccc(C(=O)Nc2ccc(C#Cc3ccc(C)cc3)c(C(=O)O)c2)c(OC)c1 [Beispiel 30] |
| 64 | COc1cc(OC)cc(C(=O)Nc2ccc(C#Cc3ccc(C)cc3)c(C(=O)O)c2)c1 [Beispiel 31] |
| 94 | Cc1ccc(C#Cc2ccc(NC(=O)C(C)C)cc2C(=O)O)cc1 [Beispiel 40] |
| 55 | Cc1ccc(C#Cc2ccc(NC(=O)c3ccccc3O)cc2C(=O)O)cc1 [Beispiel 43] |
| 76 | Cc1ccc(C#Cc2ccc(NC(=O)CCC3CCCC3)cc2C(=O)O)cc1 [Beispiel 35] |
| 78 | COc1cccc(C(=O)Nc2ccc(C#Cc3ccc(C)cc3)c(C(=O)O)c2)c1 [Beispiel 36] |
| 50 | Cc1ccc(C#Cc2ccc(NC(=O)c3cccc(C(F)(F)F)c3)cc2C(=O)O)cc1 [Beispiel 34] |
| 58 | O=C(O)c1cc(NC(=O)C2CCCCC2)ccc1C#Cc1ccccc1 [Beispiel 24] |
| 60 | Cc1ccc(C#Cc2ccc(NC(=O)c3cccc4ccccc34)cc2C(=O)O)cc1 [Beispiel 42] |
| 77 | Cc1ccc(C#Cc2ccc(NC(=O)c3cc(C(F)(F)F)cc(C(F)(F)F)c3)cc2C(=O)O)cc1 [Beispiel 33] |
| 55 | Cc1ccc(C#Cc2ccc(NC(=O)c3cccc(Cl)c3)cc2C(=O)O)cc1 [Beispiel 37] |
| 58 | CC(C)(C)CC(=O)Nc1ccc(C#Cc2ccccc2)c(C(=O)O)c1 [Beispiel 27] |
| 62 | Cc1ccc(C#Cc2ccc(NS(=O)(=O)c3ccc([N+](=O)[O-])cc3)cc2C(=O)O)cc1 [Beispiel 39] |
